As a reminder, the IC50 is the concentration at which inhibition is half-maximal.

The target in this assay is T1, human type 1 glycine transporter (GlyT1) (Homo sapiens, UniProt P48067).
T1 construct: T98G cells (glioma cells) expressing human type 1 glycine transporter (GlyT1) were used
T1 sequence (P48067 1-706): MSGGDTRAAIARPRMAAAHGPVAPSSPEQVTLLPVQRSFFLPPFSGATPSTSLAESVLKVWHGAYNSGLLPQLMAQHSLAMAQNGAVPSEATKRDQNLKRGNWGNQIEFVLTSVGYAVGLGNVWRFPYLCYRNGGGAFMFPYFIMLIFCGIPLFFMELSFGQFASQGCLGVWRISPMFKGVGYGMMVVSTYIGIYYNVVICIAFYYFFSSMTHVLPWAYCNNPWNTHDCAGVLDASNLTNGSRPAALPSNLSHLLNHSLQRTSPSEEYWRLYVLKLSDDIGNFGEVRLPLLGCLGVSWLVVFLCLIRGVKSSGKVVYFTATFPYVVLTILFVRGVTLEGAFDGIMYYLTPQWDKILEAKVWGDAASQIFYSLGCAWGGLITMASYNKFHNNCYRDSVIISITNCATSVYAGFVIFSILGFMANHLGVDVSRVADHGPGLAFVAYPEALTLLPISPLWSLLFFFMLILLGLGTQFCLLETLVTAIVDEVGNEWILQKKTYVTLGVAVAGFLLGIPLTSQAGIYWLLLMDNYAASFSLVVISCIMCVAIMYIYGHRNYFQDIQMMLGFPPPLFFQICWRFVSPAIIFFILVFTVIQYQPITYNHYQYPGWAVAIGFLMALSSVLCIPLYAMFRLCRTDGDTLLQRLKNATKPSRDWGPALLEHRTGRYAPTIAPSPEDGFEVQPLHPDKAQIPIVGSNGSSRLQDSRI
The assay can be described thus: Glycine uptake inhibition experiment ([3H]glycine uptake). Format: cell-based. Conditions: GlyT1. The gist of the method:
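T98G glioma cells expressing human GlyT1 were pretreated 10 min with compound in HEPES buffer pH 7.4 (0.2% BSA), then incubated with compound plus 250 nM final [3H]glycine for 15 min at room temperature. Intracellular radioactivity was counted after NaOH lysis; 10 μM ALX5407 defined non-specific uptake. IC50 came from 10^−9–10^−5 M curves.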
As for `O=C(NC(c1cccc(F)c1)C1(O)CCC(F)(F)CC1)c1nccc(C(F)(F)F)c1Cl` (centres unmarked) [Compound 75, 3-chloro-N-[(4,4-difluoro-1-hydroxycyclohexyl)(3-fluorophenyl)methyl]-4-(trifluoromethyl)pyridine-2-carboxamide], 240 nM corresponded to half-maximal inhibition (IC50). This lies in the sub-micromolar range.

For `O=C(NC(c1cccc(-n2ccnn2)c1)C1(O)CCCC1)c1nccc(C(F)(F)F)c1Cl` (centres unmarked) [Compound 78, 3-chloro-N-{(1-hydroxycyclopentyl)[3-(1H-1,2,3-triazol-1-yl)phenyl]methyl}-4-(trifluoromethyl)pyridine-2-carboxamide], half-maximal inhibition (IC50) required 450 nM.

Take `O=C(NC(c1cccc(-n2nccn2)c1)C1(O)CCCC1)c1nccc(C(F)(F)F)c1Cl` (centres unmarked) [Compound 79, 3-chloro-N-{(1-hydroxycyclopentyl)[3-(2H-1,2,3-triazol-2-yl)phenyl]methyl}-4-(trifluoromethyl)pyridine-2-carboxamide]: it took 310 nM to reach half-maximal inhibition (IC50).

The compound `O=C(NC(c1cccc(-n2cccn2)c1)C1(O)CCCC1)c1nccc(C(F)(F)F)c1Cl` (centres unmarked) [Compound 80, 3-chloro-N-{(1-hydroxycyclopentyl)[3-(1H-pyrazol-1-yl)phenyl]methyl}-4-(trifluoromethyl)pyridine-2-carboxamide] displayed an IC50 of 160 nM.

Compound `O=C(NC(c1cccc(C(F)(F)F)c1)C1(O)CCCC1)c1nccc(C(F)(F)F)c1Cl` (centres unmarked) [Compound 81, 3-chloro-N-{(1-hydroxycyclopentyl)[3-(trifluoromethyl)phenyl]methyl}-4-(trifluoromethyl)pyridine-2-carboxamide] came in with an IC50 of 960 nM.

For the compound `O=C(NC(c1cccc(OC(F)(F)F)c1)C1(O)CCCC1)c1nccc(C(F)(F)F)c1Cl` (centres unmarked) [Compound 84, 3-chloro-N-{(1-hydroxycyclopentyl)[3-(trifluoromethoxy)phenyl]methyl}-4-(trifluoromethyl)pyridine-2-carboxamide], the IC50 amounted to 2600 nM. Compared with the last compound, the IC50 is about 2.7-fold higher.

Compound `O=C(NC(c1cccc(Br)c1)C1(O)CCC(F)(F)CC1)c1nccc(C(F)(F)F)c1Cl` (centres unmarked) [Compound 85, N-[(3-bromophenyl)(4,4-difluoro-1-hydroxycyclohexyl)methyl]-3-chloro-4-(trifluoromethyl)pyridine-2-carboxamide] showed an IC50 of 320 nM. This IC50 is about 8.1-fold lower than that of the compound before.

Regarding `CCn1cc(-c2cccc(C(NC(=O)c3nccc(C(F)(F)F)c3Cl)C3(O)CCC(F)(F)CC3)c2)cn1` (centres unmarked) [Compound 86, 3-chloro-N-{(4,4-difluroo-1-hydroxycyclohexyl)[3-(1-ethyl-1H-pyrazol-4-yl)phenyl]methyl}-4-(trifluoromethyl)pyridine-2-carboxamide], the IC50 was determined as 73 nM.

On to `CCOc1cccc(C(NC(=O)c2nccc(C(F)(F)F)c2Cl)C2(O)CCCC2)c1` (centres unmarked) [Compound 87, 3-chloro-N-[(3-ethoxyphenyl)(1-hydroxycyclopentyl)methyl]-4-(trifluoromethyl)pyridine-2-carboxamide], for which it took 300 nM to reach half-maximal inhibition (IC50).

`O=C(NC(c1cc(F)cc(Cl)c1)C1(O)CCCC1)c1nccc(C(F)(F)F)c1Cl` (centres unmarked) [Compound 88, 3-chloro-N-[(3-chloro-5-fluroophenyl)(1-hydroxycyclopentyl)methyl]-4-(trifluoromethyl)pyridine-2-carboxamide] returned an IC50 of 180 nM.

Take `O=C(NC(c1ccc(F)c(Cl)c1)C1(O)CCCC1)c1nccc(C(F)(F)F)c1Cl` (centres unmarked) [Compound 93, 3-chloro-N-{(3-chloro-4-fluorophenyl)(1-hydroxycyclopentyl)methyl}-4-(trifluoromethyl)pyridine-2-carboxamide]: the 50% inhibitory concentration (IC50) is 430 nM.

`O=C(NC(c1ccc(F)cc1Cl)C1(O)CCCC1)c1nccc(C(F)(F)F)c1Cl` (centres unmarked) [Compound 95, 3-chloro-N-[(2-chloro-4-fluorophenyl)(1-hydroxycyclopentyl)methyl]-4-(trifluoromethyl)pyridine-2-carboxamide] showed an IC50 of 130 nM. Against the preceding compound, the IC50 is about 3.3-fold lower.

Compound `O=C(NC(c1cccc(Br)c1)C1(O)CCC(F)CC1)c1nccc(C(F)(F)F)c1Cl` (centres unmarked) [Compound 96, N-[(3-bromophenyl)(4-fluoro-1-hydroxycyclohexyl)methyl]-3-chloro-4-(trifluoromethyl)pyridine-2-carboxamide] registered an IC50 of 250 nM.

In the case of `COC(=O)c1cccc(C(NC(=O)c2nccc(C(F)(F)F)c2Cl)C2(O)CCCC2)c1` (centres unmarked) [Compound 98, methyl 3-[({[3-chloro-4-(trifluoromethyl)pyridin-2-yl]carbonyl}amino)(1-hydroxycyclopentyl)methyl]benzoate], 590 nM corresponded to half-maximal inhibition (IC50).

The compound `O=C(N[C@H](c1cccc(Br)c1)[C@]1(O)CC[C@H](F)CC1)c1nccc(C(F)(F)F)c1Cl` [Compound 101, N-[(R)-(3-bromophenyl)(trans-4-fluoro-1-hydroxycyclohexyl)methyl]-3-hcloro-4-(trifluoromethyl)pyridine-2-carboxamide] came in with an IC50 of 1500 nM.

With `O=C(N[C@@H](c1cccc(Br)c1)[C@]1(O)CC[C@H](F)CC1)c1nccc(C(F)(F)F)c1Cl` [Compound 102, N-[(S)-(3-bromophenyl)(trans-4-fluoro-1-hydroxycyclohexyl)methyl]-3-chloro-4-(trifluoromethyl)pyridine-2-carboxamide], the midpoint of inhibition, the IC50, lay at 150 nM. This IC50 lies about 10-fold lower than the previous one.

In turn, `O=C(NC(c1ccccc1Cl)C1(O)CCC(F)(F)CC1)c1nccc(C(F)(F)F)c1Cl` (centres unmarked) [Compound 103, 3-chloro-N-[(2-chlorophenyl)(4,4-difluoro-1-hydroxycyclohexyl)methyl]-4-(trifluoromethyl)pyridine-2-carboxamide] displayed an IC50 of 250 nM.

`O=C(NC(c1cccc(CO)c1)C1(O)CCCC1)c1nccc(C(F)(F)F)c1Cl` (centres unmarked) [Compound 104, 3-chloro-N-{(1-hydroxycyclopentyl)[3-(hydroxymethyl)phenyl]methyl}-4-(trifluoromethyl)pyridine-2-carboxamide] gave an IC50 of 920 nM.

`CN(C)C(=O)c1cccc(C(NC(=O)c2nccc(C(F)(F)F)c2Cl)C2(O)CCCC2)c1` (centres unmarked) [Compound 105, 3-chloro-N-{[3-(dimethylcarbamoyl)phenyl](1-hydroxycyclopentyl)methyl}-4-(trifluoromethyl)pyridine-2-carboxamide] displayed an IC50 of 1600 nM. Compared with the last compound, the IC50 is about 1.7-fold higher.

On to `NC(=O)c1cccc(C(NC(=O)c2nccc(C(F)(F)F)c2Cl)C2(O)CCCC2)c1` (centres unmarked) [Compound 106, N-[(3-carbamoylphenyl)(1-hydroxycyclopentyl)methyl]-3-chloro-4-(trifluoromethyl)pyridine-2-carboxamide], for which the 50% inhibitory concentration (IC50) was 900 nM.

`O=C(NC(c1cccc(Cl)c1Cl)C1(O)CCCC1)c1nccc(C(F)(F)F)c1Cl` (centres unmarked) [Compound 107, 3-chloro-N-[(2,3-dichlorophenyl)(1-hydroxycyclopentyl)methyl]-4-(trifluoromethyl)pyridine-2-carboxamide] displayed a 50% inhibitory concentration (IC50) of 39 nM.

Compound `O=C(NC(c1cc(Cl)ccc1Cl)C1(O)CCCC1)c1nccc(C(F)(F)F)c1Cl` (centres unmarked) [Compound 108, 3-chloro-N-[(2,5-dichlorophenyl)(1-hydroxycyclopentyl)methyl]-4-(trifluoromethyl)pyridine-2-carboxamide] gave an IC50 of 68 nM.

Turning to `O=C(N[C@H](c1cccc(Br)c1)[C@]1(O)CC[C@@H](F)CC1)c1nccc(C(F)(F)F)c1Cl` [Compound 109, N-[(R)-(3-bromophenyl)(cis-4-fluoro-1-hydroxycyclohexyl)methyl]-3-chloro-4-(trifluoromethyl)pyridine-2-carboxamide], the IC50 was 6100 nM.

For the origin of these results see US20160130278A1 (TAISHO PHARMACEUTICAL CO., LTD, priority 2013, published 2016).
